Experiments:
Format in all cases: functional
OVCAR-3 = assay: Antiproliferative activity against human OVCAR-3 cells assessed as cell growth at 0.5 uM by SRB assay; conditions: read-out: Activity
IGROV-1 = assay: Antiproliferative activity against human IGROV1 cells assessed as cell growth at 0.5 uM by SRB assay; conditions: read-out: Activity
SW-620 [1] = assay: Antiproliferative activity against human SW620 cells assessed as cell growth at 5 uM by SRB assay; conditions: read-out: Activity
OVCAR-5 [2] = assay: Antiproliferative activity against human OVCAR5 cells at 50 uM by SRB assay
SR [3] = assay: Antiproliferative activity against human SR cells by SRB assay
EKVX = assay: Antiproliferative activity against human EKVX cells assessed as cell growth at […] by SRB assay; conditions: read-out: Activity
Malme-3M = assay: Antiproliferative activity against human MALME-3M cells assessed as cell growth at 500 uM by SRB assay; conditions: read-out: Activity
HOP-92 [4] = assay: Antiproliferative activity against human HOP92 cells assessed as cell growth at 500 uM by SRB assay; conditions: read-out: Activity
MOLT-4 = assay: Antiproliferative activity against human MOLT4 cells by SRB assay
SK-MEL-5 = assay: Antiproliferative activity against human SK-MEL-5 cells assessed as cell growth at 50 uM by SRB assay; conditions: read-out: Activity
HOP-62 = assay: Antiproliferative activity against human HOP62 cells assessed as cell growth at 0.5 uM by SRB assay; conditions: read-out: Activity
RXF 393 = assay: Antiproliferative activity against human RXF393 cells assessed as cell growth at 500 uM by SRB assay; conditions: read-out: Activity
HOP-92 [5] = assay: Antiproliferative activity against human HOP92 cells assessed as cell growth at 5 uM by SRB assay; conditions: read-out: Activity
A549 = assay: Antiproliferative activity against human A549 cells assessed as cell growth at 50 uM by SRB assay; conditions: read-out: Activity
CCRF-CEM = assay: Antiproliferative activity against human CCRF-CEM cells assessed as cell growth at 500 uM by SRB assay; conditions: read-out: Activity
MDA-MB-231 = assay: Antiproliferative activity against human MDA-MB-231 cells assessed as cell growth at 500 uM by SRB assay; conditions: read-out: Activity
COLO 205 = assay: Antiproliferative activity against human COLO205 cells assessed as cell growth at 50 uM by SRB assay; conditions: read-out: Activity
SNB-19 = assay: Antiproliferative activity against human SNB19 cells by SRB assay
OVCAR-8 = assay: Antiproliferative activity against human OVCAR8 cells by SRB assay
A498 = assay: Antiproliferative activity against human A498 cells assessed as cell growth at 0.5 uM by SRB assay; conditions: read-out: Activity
SR [6] = assay: Antiproliferative activity against human SR cells assessed as cell growth at 5 uM by SRB assay; conditions: read-out: Activity
CAKI-1 = assay: Antiproliferative activity against human Caki1 cells assessed as cell growth at 5 uM by SRB assay; conditions: read-out: Activity
SF-268 = assay: Antiproliferative activity against human SF268 cells assessed as cell growth at 500 uM by SRB assay; conditions: read-out: Activity
OVCAR-5 [7] = assay: Antiproliferative activity against human OVCAR5 cells by SRB assay
SK-MEL-2 = assay: Antiproliferative activity against human SK-MEL-2 cells assessed as cell growth at 50 uM by SRB assay; conditions: read-out: Activity
U-251 = assay: Antiproliferative activity against human U251 cells assessed as cell growth at 0.5 uM by SRB assay; conditions: read-out: Activity
SN12C [8] = assay: Antiproliferative activity against human SN12C cells assessed as cell growth at 0.5 uM by SRB assay; conditions: read-out: Activity
NCI-H522 [9] = assay: Antiproliferative activity against human NCI-H522 cells assessed as cell growth at 5 uM by SRB assay; conditions: read-out: Activity
HL-60(TB) [10] = assay: Antiproliferative activity against human HL-60(TB) cells assessed as cell growth at 5 uM by SRB assay; conditions: read-out: Activity
K562 = assay: Antiproliferative activity against human K562 cells assessed as cell growth at 0.5 uM by SRB assay; conditions: read-out: Activity
NCI-H460 = assay: Antiproliferative activity against human NCI-H460 cells by SRB assay
UO-31 = assay: Antiproliferative activity against human UO31 cells assessed as cell growth at 500 uM by SRB assay; conditions: read-out: Activity
OVCAR-4 = assay: Antiproliferative activity against human OVCAR4 cells assessed as cell growth at 50 uM by SRB assay; conditions: read-out: Activity
NCI-H226 = assay: Antiproliferative activity against human NCI-H226 cells assessed as cell growth at 50 uM by SRB assay; conditions: read-out: Activity
HT-29 = assay: Antiproliferative activity against human HT-29 cells assessed as cell growth at […] by SRB assay; conditions: read-out: Activity
NCI-H522 [11] = assay: Antiproliferative activity against human NCI-H522 cells by SRB assay
MDA-MB-435 = assay: Antiproliferative activity against human MDA-MB-435 cells assessed as cell growth at 500 uM by SRB assay; conditions: read-out: Activity
MCF7 = assay: Antiproliferative activity against human MCF7 cells assessed as cell growth at 0.5 uM by SRB assay; conditions: read-out: Activity
786-0 = assay: Antiproliferative activity against human 786-0 cells assessed as cell growth at 0.5 uM by SRB assay; conditions: read-out: Activity
SW-620 [12] = assay: Antiproliferative activity against human SW620 cells assessed as cell growth at 50 uM by SRB assay; conditions: read-out: Activity
UACC-62 = assay: Antiproliferative activity against human UACC62 cells assessed as cell growth at 0.5 uM by SRB assay; conditions: read-out: Activity
SN12C [13] = assay: Antiproliferative activity against human SN12C cells assessed as cell growth at 50 uM by SRB assay; conditions: read-out: Activity
HL-60(TB) [14] = assay: Antiproliferative activity against human HL-60(TB) cells assessed as cell growth at 5 mM by SRB assay; conditions: read-out: Activity
[15] = read-out: LC50 (the source's name)
[16] = read-out: pLC50 (the source's name) (converted)

Molecule O=C(/C=C/c1ccc(O)c(O)c1)OCCc1ccc(O)c(O)c1 has a growth at 0.5 µM (OVCAR-3) of 104%, a growth at 0.5 µM (IGROV-1) of 112% and a growth at 5 µM (SW-620 [1]) of 95%. For the same molecule, the Activity (OVCAR-5 [2]) was 97%, the GI50 (SR [3]; read-out: GI50) was 1.49 µM and the CC50 (SR [3]; [15]) was > 50 µM. For the same molecule, the TGI (SR [3]; read-out: TGI) was 12.7 µM, the GI50 (SR [3]; read-out: pGI50 (converted)) was 1.48 µM and the CC50 (SR [3]; [16]) was > 50.1 µM. The TGI (SR [3]; read-out: pTGI (converted)) was 12.6 µM, the growth (EKVX) was 19% and the growth at 500 µM (Malme-3M) was 74%. For the same molecule, the growth at 500 µM (HOP-92 [4]) was 29%, the GI50 (MOLT-4; read-out: GI50) was 3.06 µM and the CC50 (MOLT-4; [15]) was > 50 µM. For the same molecule, the TGI (MOLT-4; read-out: TGI) was > 50 µM, the GI50 (MOLT-4; read-out: pGI50 (converted)) was 3.09 µM and the CC50 (MOLT-4; [16]) was > 50.1 µM. For the same molecule, the TGI (MOLT-4; read-out: pTGI) was > 50.1 µM, the growth at 50 µM (SK-MEL-5) was 102% and the growth at 0.5 µM (HOP-62) was 92%. For the same molecule, the growth at 500 µM (RXF 393) was 89%, the growth at 5 µM (HOP-92 [5]) was 60% and the growth at 50 µM (A549) was 101%. The growth at 500 µM (CCRF-CEM) was 1%, the growth at 500 µM (MDA-MB-231) was 85% and the growth at 50 µM (COLO 205) was 89%. For the same molecule, the GI50 (SNB-19; read-out: GI50) was 15.5 µM, the CC50 (SNB-19; [15]) was > 50 µM and the TGI (SNB-19; read-out: TGI) was > 50 µM. For the same molecule, the GI50 (SNB-19; read-out: pGI50 (converted)) was 15.5 µM, the CC50 (SNB-19; [16]) was > 50.1 µM and the TGI (SNB-19; read-out: pTGI) was > 50.1 µM. The GI50 (OVCAR-8; read-out: GI50) was 9.32 µM, the CC50 (OVCAR-8; [15]) was > 50 µM and the TGI (OVCAR-8; read-out: TGI) was > 50 µM. For the same molecule, the GI50 (OVCAR-8; read-out: pGI50 (converted)) was 9.33 µM, the CC50 (OVCAR-8; [16]) was > 50.1 µM and the TGI (OVCAR-8; read-out: pTGI) was > 50.1 µM. The growth at 0.5 µM (A498) was 94%, the growth at 5 µM (SR [6]) was 81% and the growth at 5 µM (CAKI-1) was 83%. For the same molecule, the growth at 500 µM (SF-268) was 57%, the GI50 (OVCAR-5 [7]; read-out: GI50) was > 50 µM and the CC50 (OVCAR-5 [7]; [15]) was > 50 µM. The TGI (OVCAR-5 [7]; read-out: TGI) was > 50 µM, the GI50 (OVCAR-5 [7]; read-out: pGI50 (converted)) was > 50.1 µM and the CC50 (OVCAR-5 [7]; [16]) was > 50.1 µM. The TGI (OVCAR-5 [7]; read-out: pTGI) was > 50.1 µM, the growth at 50 µM (SK-MEL-2) was 91% and the growth at 0.5 µM (U-251) was 102%. The growth at 0.5 µM (SN12C [8]) was 74%, the growth at 5 µM (NCI-H522 [9]) was 89% and the growth at 5 µM (HL-60(TB) [10]) was 85%. The growth at 0.5 µM (K562) was 107%, the GI50 (NCI-H460) was 14.8 µM and the CC50 (NCI-H460; [15]) was > 50 µM. The TGI (NCI-H460; read-out: TGI) was > 50 µM, the CC50 (NCI-H460; [16]) was > 50.1 µM and the TGI (NCI-H460; read-out: pTGI) was > 50.1 µM. For the same molecule, the growth at 500 µM (UO-31) was 23%, the growth at 50 µM (OVCAR-4) was 92% and the growth at 50 µM (NCI-H226) was 90%. For the same molecule, the growth (HT-29) was 34%, the GI50 (NCI-H522 [11]; read-out: GI50) was 1.26 µM and the CC50 (NCI-H522 [11]; [15]) was > 50 µM. For the same molecule, the TGI (NCI-H522 [11]; read-out: TGI) was 8.61 µM, the GI50 (NCI-H522 [11]; read-out: pGI50 (converted)) was 1.26 µM and the CC50 (NCI-H522 [11]; [16]) was > 50.1 µM. It also gave a TGI (NCI-H522 [11]; read-out: pTGI (converted)) of 8.91 µM, a growth at 500 µM (MDA-MB-435) of 48% and a growth at 0.5 µM (MCF7) of 94%. The growth at 0.5 µM (786-0) was 97%, the growth at 50 µM (SW-620 [12]) was 98% and the growth at 0.5 µM (UACC-62) was 91%. The growth at 50 µM (SN12C [13]) was 81% and the growth at 5000 µM (HL-60(TB) [14]) was -30%.

Reference: ChEMBL document CHEMBL1154899, “Synthesis and biological evaluation of caffeic acid 3,4-dihydroxyphenethyl ester” (J Nat Prod, 2010)
